This is an account of results in patent publication US20220409526A1 (Retina Foundation Of The Southwest, priority 2019, published 2022).

For orientation: viability means the share of living cells, or the viability signal relative to a control. Lower therefore signals a greater loss of cells.

The subject of data set [1] is ARPE-19 cells. Briefly: GSH assay (Promega GSH/GSSG-Glo). Format: cell-based, human. To be noted: 1 mM for 24 hours. On the procedure: The production of cellular GSH levels upon exposure to drugs were measured using the GSH assay kit. NACA and GSH-EE were used as controls in this assay. ARPE-19 cells were grown in white 96 well plates. The cells were exposed to 1 mM solutions of NAC, NACME, NACEE, NACPE, NACBE, NACA and glutathione ethyl ester (GSH-EE) for 24 hours. The solutions were removed and washed with PBS once. Afterwards, GSH assay was carried out according to manufacturer recommended protocol (Promega GSH/GSSG-Glo™) and luminescence readings were obtained with a luminometer, which a higher luminescence intensity indicates a higher GSH concentration.

Data set [2] relates to ARPE-19 cells. Briefly: HPLC analysis of cellular uptake and conversion to NAC. The class given is in vitro ADME, human. The following applies: 1 mM for 1 hour in HBSS. On the procedure: ARPE-19 cells were seeded onto a 60 cm^2 dish and was allowed to grow to confluency. The cells were treated with 1 mM NAC and NACBE for 1 hour in HBSS. The drug solution was aspirated and washed twice with HBSS. The cells were scraped with the aid of methanol (˜1 mL) and collected into 2 mL centrifuge tubes. The cell suspension in methanol was sonicated (for cell lysis) in a water bath for 30 minutes and was centrifuged at 14,000 RPM for 15 minutes. The supernatant was transferred to a HPLC vial and methanol was evaporated under a stream of nitrogen.
The sample was resuspended in 50 μL of methanol before injecting into the HPLC system. Samples and standard (20 μL) were injected with an autosampler. Separation was conducted by 0.8 mL/min gradient elution with a water/0.10% formic acid and acetonitrile mobile phase on a 250×4.6-mm ([…]) C18 column (Restek, Pinnacle II) maintained at 25° C. The samples were monitored at 205 nm with a UV detector and analyzed with Agilent Chemstation software.

Data set [3] concerns ARPE-19 cells. Briefly: in vitro. Format: cell-based, human. On the procedure: (§1) ARPE-19 cells were grown in DMEM:F-12 supplemented with 10% fetal bovine serum (FBS). For all experiments these cells were split and grown in 6-well plates using MEM-Nic supplemented with 1% FBS according to a previously published procedure.^33 Cells used for all the experiments were between passages 25-30. For all experiments, the 96 well plates and 8-well slides were coated with 0.039 mg/mL collagen I at 6 μg/cm^2. The cells were seeded at a cell density of 70,000 cells/well and 150,000 cells/well using MEM-Nic media for 96 well plates and 8 well slides, respectively. Once the cells are confluent, media was replaced with MEM a, GlutaMAX™, supplemented with 1% FBS for 24 hours before carrying out assay protocols. Exposure to NAC alkyl-ester prodrugs were carried out in MEM a, GlutaMAX™, supplemented with 1% FBS and treatment with HQ was carried out in serum free DMEM:F-12.
(§2) ARPE-19 Cell viability assays were carried out using XTT/PMS reagent mixtures according to standard procedures known in the art (see Celis, J. E.; Carter, N., Cell Biology: A Laboratory Handbook. Elsevier Science: 2005). Corresponding absorbance readings were obtained using a plate reader at 450 and 660 nm.
(§3) A dose dependent study was first carried out for ARPE-19 cells using HQ concentrations varying from 100-1000 μM. Cells were then incubated at 37° C., 5% CO2 for 16 hours. HQ doses of less than 400 μM were non-lethal. Using 500 μM HQ for 16 hours gave a cell viability of ˜60%.
(§4) To evaluate the ability of the NAC alkyl-ester analogues to provide cellular protection against oxidative stress, cells were treated with 0.05 mM of NAC, NACME, NACEE, NACPE and NACBE for 2, 24 and 48 hours. Treated cells were then exposed to 500 μM HQ for 16 hours. HQ solutions were removed and replaced with DMEM:F-12 supplemented with 1% FBS, and followed by the addition of XTT (2,3-bis-(2-methoxy-4-nitro-5-sulfophenyl)-2H-tetrazolium-5-carboxanilide) and PMS (phenazine methyl sulfate).
(§5) To compare the effectiveness of NACBE and NAC in protecting against oxidative damage, another dose dependent study was carried out by varying the pretreatment concentration from 0.001 mM to 1.0 mM. […] Whereas for NAC, to reach the same cell viability, 0.5 mM concentration was needed (10× times that of NACBE).

The subject of data set [4] is ARPE-19 cells. Briefly: CellTiter-Glo assay (ATP). Format: cell-based, human. On the procedure: ARPE-19 cells were grown in white 96 well plates. The cells were first exposed to 500 μM of HQ for 3, 6 and 8 hours and the amount of ATP produced was measured using the CellTiter-Glo assay kit to obtain a time dependent response (FIG. 15). […] Due to the mitochondrial damage caused by HQ, the production of ATP was decreased.
On the technique in general: ATP-based viability assays read luminescence as a measure of living cells.

Data set [5] concerns ARPE-19 cells. In words: ZO-1 staining of cellular junctions. Format: cell-based, human. On the procedure: ARPE-19 cells were grown on an 8-well slide until confluent. The cells were exposed to 1 mM NAC and NACBE for 24 hours, followed by treatment with 500 μM of HQ for 2 hours. The cells were washed with 3 cycles of PBS, and then fixed with 4% Paraformaldehyde at 4° C. for 30 mins. After fixation the cells were blocked in PBST (0.2% Triton X-100)+1% BSA for 60 mins. Primary antibody (rabbit anti-Zo-1, Invitrogen) was diluted 1/100 in PBST+1% BSA and added overnight at […]. Cells were washed ×3 with PBS and secondary antibody (Donkey anti-Rabbit AF-555, Abcam) was added for 4 hours at RT. Cells were washed ×3 with PBS and mounted with Prolong Diamond Mountant with DAPI (Invitrogen).

The subject of data set [6] is ARPE-19 cells. Briefly: JC-1 staining (confocal). To be noted: 1 mM pretreatment for 24 hours, then 50 μM HQ for 4 hours.
Description: The cells were imaged on the confocal (Zeiss LSM 800) by excitation with the 488 nm laser and emission imaged at 530 nm (green channel) and 590 nm (red channel).
The test system of data set [7] is mitochondrial DNA of ARPE-19 cells. Briefly: DNA fragmentation assay (long-extension PCR of mitochondrial DNA). The class given is cell-based, human. On the procedure:
Mitochondrial DNA damage has been linked to pathogenic diseases, including AMD. To determine if pretreatment of RPE cells with NAC alkyl-ester analogues could protect mitochondrial DNA against oxidative damage, a long-extension PCR based assay was used to measure amplification of a large stretch of mitochondrial DNA. The mitochondrial DNA damage assay was performed according to protocols known to those in the art (see Santos, J. H.; Mandavilli, B. S.; Van Houten, B., Measuring Oxidative mtDNA Damage and Repair Using Quantitative PCR. In Mitochondrial DNA: Methods and Protocols, Copeland, W. C., Ed. Humana Press: Totowa, N.J., 2002; pp 159-176). Briefly, ARPE-19 cells were grown to confluency in 6-well plates. The cells were treated with NAC alkyl-ester analogues for 24 hours, washed and then treated with 500 uM HQ for an additional 24 hours. DNA was isolated from the treated cells with a QIAamp DNA mini kit (Qiagen). The DNA samples were diluted to 3 ng/μl for use in PCR reactions. PCR products were quantified using the Quant-iT Picogreen dsDNA Assay kit (Invitrogen). The relative amplification of the large band was normalized to untreated cells. The amplification of the small mitochondrial band was used to normalize the data obtained from the large band to account for mitochondrial DNA copy number.

Data set [8] deals with ARPE-19 cells. In words: JC-1 assay (mitochondrial membrane potential). The class given is cell-based, human. To be noted: 50 μM HQ for 4 hours, compared to the control. On the procedure:
JC-1 assays measuring the change in mitochondrial membrane potential were carried out to evaluate the protection of the NAC alkyl-ester analogues towards mitochondrial damage.
Typically, JC-1 dye has an inherent green fluorescence at 530 nm. Upon reaching the cell, due to the structural properties of the dye, it will accumulate in the mitochondria making aggregates known as J-aggregates. These J-aggregates consists of a red shifted fluorescence (590 nm). Damaged or unhealthy mitochondria, due to their depolarized membrane potential (compared to healthy ones), will have lesser amounts of aggregates and thus will have low intensity of red emission. Cells with healthy mitochondria will have a more prominent red fluorescence than that in cells with damaged/unhealthy mitochondria due to the ability in forming J-aggregates.
ARPE-19 cells were grown in black, clear bottom 96 well plates. […] With increasing time and dose of HQ, a drop in 590 nm/530 nm fluorescence is seen due to the depolarization of the mitochondria.
Next, to assess the effect of NAC alkyl-ester analogues on oxidative damage in mitochondria (FIG. 12B), ARPE-19 cells were pretreated with 1 mM NAC, NAC alkyl-ester analogues, NACA, GSH-EE and 1 μM MitoQ for 1 and 24 hours. […] The JC-1 solution was removed and washed once with PBS and fluorescence measurements were obtained in PBS at 485 nm excitation and emission at 535 nm and 590 nm. […]

A further data set in a line: in vitro. Format: cell-based, human. To be noted: human. On the procedure: as §1, §2, §3, §4, §5

For the compound `CCOC(=O)[C@H](CS)NC(C)=O` [NACEE, N-acetylcysteine ethyl ester], the “cellular GSH level (luminescence) compared to untreated cells” value in the data set on ARPE-19 cells [1] is recorded as “produced the highest amounts of GSH”.
With `CC(=O)N[C@@H](CS)C(N)=O`, in the data set on ARPE-19 cells [1], the “cellular GSH level (luminescence) compared to untreated cells” value is “did not produce any significant GSH”.
For the compound `CC(=O)N[C@@H](CS)C(=O)O` [NAC, N-acetylcysteine], in the data set with ARPE-19 cells [2], the “compound and metabolite detected within the cells by HPLC” value is “no NAC was detected”. The “concentration needed for 100% cell viability relative to NACBE” value in the data set with ARPE-19 cells [3] (NAC 0.5 mM versus NACBE 0.05 mM) worked out at 10 ×. For the same compound, the “pretreatment concentration at which 100% cell viability was obtained” value in the data set on ARPE-19 cells [3] (pretreatment 0.001-1.0 mM for 24 hours, then 500 μM HQ for 16 hours) is on record as 0.5 mM. For the same compound, the “ATP production after HQ insult” value in the data set on ARPE-19 cells [4] (1 mM pretreatment, then 500 μM HQ for 3, 6 and 8 hours) is recorded as “some protection”. Moreover, in the data set on ARPE-19 cells [5] (1 mM for 24 hours, without HQ), the “ZO-1 staining of cell-cell junctions” value is given as “proper cell-cell junctions”. In the data set with ARPE-19 cells [5] (1 mM pretreatment for 24 hours, then 500 μM HQ for 2 hours), the “ZO-1 staining of cellular junctions after exposure to HQ” value is given as “diminished or was completely absent”. Also, in the data set with ARPE-19 cells [1], the “cellular GSH level (luminescence) compared to untreated cells” value was “did not produce any significant GSH”. Moreover, the “mitochondrial membrane potential after HQ (JC-1 staining)” value with ARPE-19 cells [6] is reported as “did not help to retain mitochondrial depolarization”. The “protection of mitochondrial DNA amplification against HQ” value in [7] (pretreatment for 24 hours (1 mM), then 500 uM HQ for 24 hours) is listed as “did not show any signs of protection”.
For the compound `CCOC(=O)CNC(=O)[C@H](CS)NC(=O)CC[C@H](N)C(=O)O` [GSH-EE, glutathione ethyl ester], the “cellular GSH level (luminescence) compared to untreated cells” value in the data set with ARPE-19 cells [1] is reported as “did not produce any significant GSH”.
As to `Oc1ccc(O)cc1` [HQ, hydroquinone], the “mitochondrial depolarization (590 nm/530 nm fluorescence)” value in the data set on ARPE-19 cells [8] is “moderate depolarization”. Further, in the data set “in vitro”, the viability at 16 h, 500 μM is about 60%. The “non-lethal HQ doses” value with ARPE-19 cells [3] (human, 16 h) is on record as “less than 400 μM”. In addition, the “level of ATP” value in the data set with ARPE-19 cells [4] (500 μM HQ for 3, 6 and 8 hours) is reported as “the level of ATP decreased”. Moreover, the “amplification of mitochondrial DNA” value in data set [7] (500 uM HQ for 24 hours) is “drastically reduced the amplification of mitochondrial DNA”.
For the compound `CCCOC(=O)[C@H](CS)NC(C)=O` [NACPE, N-acetylcysteine propyl ester], in the data set with ARPE-19 cells [1], the “cellular GSH level (luminescence) compared to untreated cells” value is recorded as “produced the highest amounts of GSH”.
